Results published in ChEMBL document CHEMBL4390652, “Design, biological evaluation and X-ray crystallography of nanomolar multifunctional ligands targeting simultaneously acetylcholinesterase and glycogen synthase kinase-3” (Eur J Med Chem, 2019).

How the values were obtained:
[1] = tested on: Tyrosine-protein kinase ABL1 (Homo sapiens), P00519 [M351T]; experiment: Binding affinity to human phosphorylated ABL1 M351T mutant (S229 to K512 residues) expressed in mammalian expression system assessed as residual binding level at 10 uM by Kinomescan method relative to control
[2] = molecular target: Aurora kinase B (Homo sapiens) (UniProt Q96GD4); experiment: Binding affinity to wild-type human partial length AURKB (D25 to A303 residues) expressed in mammalian expression system assessed as residual binding level at 10 uM by Kinomescan method relative to control
[3] = molecular target: Tyrosine-protein kinase BTK (Homo sapiens) (UniProt Q06187); experiment: Binding affinity to wild-type human full length BTK (M1 to S659 residues) expressed in mammalian expression system assessed as residual binding level at 10 uM by Kinomescan method relative to control
[4] = molecular target: Calcium/calmodulin-dependent protein kinase type 1D (Homo sapiens) (UniProt Q8IU85); experiment: Binding affinity to wild-type human partial length CAMK1D (M1 to K299 residues) expressed in bacterial expression system assessed as residual binding level at 10 uM by Kinomescan method relative to control
[5] = molecular target: Cyclin-dependent kinase 7 (Homo sapiens) (UniProt P50613); experiment: Binding affinity to wild-type human full length CDK7 (M1 to L344 residues) expressed in mammalian expression system assessed as residual binding level at 10 uM by Kinomescan method relative to control
[6] = molecular target: Cyclin-dependent kinase 8 (Homo sapiens) (UniProt P49336); experiment: Binding affinity to wild-type human partial length CDK8 (M1 to T360 residues) expressed in bacterial expression system assessed as residual binding level at 10 uM by Kinomescan method relative to control
[7] = molecular target: Macrophage colony-stimulating factor 1 receptor (Homo sapiens) (UniProt P07333); experiment: Binding affinity to wild-type human partial length autoinhibited CSF1R (Y538 to S939 residues) expressed in mammalian expression system assessed as residual binding level at 10 uM by Kinomescan method relative to control
[8] = molecular target: Death-associated protein kinase 3 (Homo sapiens) (UniProt O43293); experiment: Binding affinity to wild-type human partial length DAPK3 (M1 to A277 residues) expressed in bacterial expression system assessed as residual binding level at 10 uM by Kinomescan method relative to control
[9] = tested on: Epidermal growth factor receptor (Homo sapiens), P00533 [UNDEFINED MUTATION]; experiment: Binding affinity to human partial length EGFR L747-S752del/P753S mutant expressed in bacterial expression system assessed as residual binding level at 10 uM by Kinomescan method relative to control
[10] = molecular target: Ephrin type-A receptor 3 (Homo sapiens) (UniProt P29320); experiment: Binding affinity to wild-type human partial length EPHA3 (D604 to K889 residues) expressed in bacterial expression system assessed as residual binding level at 10 uM by Kinomescan method relative to control
[11] = molecular target: Focal adhesion kinase 1 (Homo sapiens) (UniProt Q05397); experiment: Binding affinity to wild-type human partial length FAK (D402 to R696 residues) expressed in bacterial expression system assessed as residual binding level at 10 uM by Kinomescan method relative to control
[12] = molecular target: Fibroblast growth factor receptor 2 (Homo sapiens) (UniProt P21802); experiment: Binding affinity to wild-type human partial length FGFR2 (D457 to E769 residues) expressed in bacterial expression system assessed as residual binding level at 10 uM by Kinomescan method relative to control
[13] = molecular target: Vascular endothelial growth factor receptor 1 (Homo sapiens) (UniProt P17948); experiment: Binding affinity to wild-type human partial length FLT1 (R781 to F1239 residues) expressed in bacterial expression system assessed as residual binding level at 10 uM by Kinomescan method relative to control
[14] = molecular target: Serine/threonine-protein kinase LATS2 (Homo sapiens) (UniProt Q9NRM7); experiment: Binding affinity to wild-type human partial length LATS2 (Q641 to V1088 residues) expressed in mammalian expression system assessed as residual binding level at 10 uM by Kinomescan method relative to control
[15] = tested on: Leucine-rich repeat serine/threonine-protein kinase 2 (Homo sapiens), Q5S007 [G2019S]; experiment: Binding affinity to human partial length LRRK2 G2019S mutant (H970 to E2527 residues) expressed in mammalian expression system assessed as residual binding level at 10 uM by Kinomescan method relative to control
[16] = tested on: Hepatocyte growth factor receptor (Homo sapiens), P08581 [M1250T]; experiment: Binding affinity to human partial length MET M1250T mutant (D1010 to S1367 residues) expressed in bacterial expression system assessed as residual binding level at 10 uM by Kinomescan method relative to control
[17] = molecular target: Cyclin-dependent kinase 16 (Homo sapiens) (UniProt Q00536); experiment: Binding affinity to wild-type human partial length PCTK1 (G160 to A474 residues) expressed in mammalian expression system assessed as residual binding level at 10 uM by Kinomescan method relative to control
[18] = molecular target: Cyclin-dependent kinase 15 (Homo sapiens) (UniProt Q96Q40); experiment: Binding affinity to wild-type human full length PFTAIRE2 (M1 to W384 residues) expressed in bacterial expression system assessed as residual binding level at 10 uM by Kinomescan method relative to control
[19] = tested on: Phosphatidylinositol 4,5-bisphosphate 3-kinase catalytic subunit alpha isoform (Homo sapiens), P42336 [C420R]; experiment: Binding affinity to human partial length PIK3CA C420R mutant (R108 to N1068 residues) expressed in mammalian expression system assessed as residual binding level at 10 uM by Kinomescan method relative to control
[20] = tested on: Phosphatidylinositol 4,5-bisphosphate 3-kinase catalytic subunit alpha isoform (Homo sapiens), P42336 [I800L]; experiment: Binding affinity to human partial length PIK3CA I800L mutant (R108 to N1068 residues) expressed in mammalian expression system assessed as residual binding level at 10 uM by Kinomescan method relative to control
[21] = molecular target: Phosphatidylinositol 4-phosphate 5-kinase type-1 alpha (Homo sapiens) (UniProt Q99755); experiment: Binding affinity to wild-type human full length PIP5K1A (M1 to H562 residues) expressed in bacterial expression system assessed as residual binding level at 10 uM by Kinomescan method relative to control
[22] = molecular target: Phosphatidylinositol 5-phosphate 4-kinase type-2 beta (Homo sapiens) (UniProt P78356); experiment: Binding affinity to wild-type human full length PIP5K2B (M1 to T416 residues) expressed in bacterial expression system assessed as residual binding level at 10 uM by Kinomescan method relative to control
[23] = molecular target: Ribosomal protein S6 kinase alpha-5 (Homo sapiens) (UniProt O75582); experiment: Binding affinity to wild-type human partial length N-terminal RPS6KA5 kinase domain 1 expressed in bacterial expression system assessed as residual binding level at 10 uM by Kinomescan method relative to control
[24] = molecular target: Serine/threonine-protein kinase TBK1 (Homo sapiens) (UniProt Q9UHD2); experiment: Binding affinity to wild-type human full length TBK1 (M1 to L729 residues) expressed in mammalian expression system assessed as residual binding level at 10 uM by Kinomescan method relative to control

Chain of Focal adhesion kinase 1 (Homo sapiens) (Q05397 2-1052 limits assumed): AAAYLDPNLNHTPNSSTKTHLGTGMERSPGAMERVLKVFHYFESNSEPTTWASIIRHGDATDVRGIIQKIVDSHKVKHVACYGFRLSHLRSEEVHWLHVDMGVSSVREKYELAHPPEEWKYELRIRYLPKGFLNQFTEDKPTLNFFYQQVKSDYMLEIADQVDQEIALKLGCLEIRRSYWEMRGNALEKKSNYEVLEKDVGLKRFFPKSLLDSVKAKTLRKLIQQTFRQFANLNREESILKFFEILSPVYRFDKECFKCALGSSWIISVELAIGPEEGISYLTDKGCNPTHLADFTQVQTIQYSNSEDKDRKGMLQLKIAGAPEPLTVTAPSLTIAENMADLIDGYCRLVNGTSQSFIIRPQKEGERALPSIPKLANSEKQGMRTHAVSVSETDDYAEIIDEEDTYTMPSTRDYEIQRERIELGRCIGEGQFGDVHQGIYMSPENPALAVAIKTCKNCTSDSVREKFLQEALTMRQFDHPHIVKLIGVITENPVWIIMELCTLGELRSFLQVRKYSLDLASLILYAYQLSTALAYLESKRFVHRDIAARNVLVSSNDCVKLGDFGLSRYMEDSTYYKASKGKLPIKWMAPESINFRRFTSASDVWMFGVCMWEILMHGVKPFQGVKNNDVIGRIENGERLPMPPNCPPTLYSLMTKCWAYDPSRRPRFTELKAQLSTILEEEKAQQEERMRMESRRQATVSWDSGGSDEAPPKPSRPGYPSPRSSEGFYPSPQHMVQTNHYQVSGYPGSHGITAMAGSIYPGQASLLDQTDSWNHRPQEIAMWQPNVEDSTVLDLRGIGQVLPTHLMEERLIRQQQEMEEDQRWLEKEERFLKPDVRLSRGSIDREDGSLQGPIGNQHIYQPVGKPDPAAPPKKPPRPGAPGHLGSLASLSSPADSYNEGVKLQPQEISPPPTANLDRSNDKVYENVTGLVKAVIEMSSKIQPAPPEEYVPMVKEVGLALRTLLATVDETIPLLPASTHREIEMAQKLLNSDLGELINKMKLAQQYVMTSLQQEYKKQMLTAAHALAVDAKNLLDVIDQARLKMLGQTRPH
Chain of Serine/threonine-protein kinase LATS2 (Homo sapiens) (Q9NRM7 whole entry, the tested form may be a part): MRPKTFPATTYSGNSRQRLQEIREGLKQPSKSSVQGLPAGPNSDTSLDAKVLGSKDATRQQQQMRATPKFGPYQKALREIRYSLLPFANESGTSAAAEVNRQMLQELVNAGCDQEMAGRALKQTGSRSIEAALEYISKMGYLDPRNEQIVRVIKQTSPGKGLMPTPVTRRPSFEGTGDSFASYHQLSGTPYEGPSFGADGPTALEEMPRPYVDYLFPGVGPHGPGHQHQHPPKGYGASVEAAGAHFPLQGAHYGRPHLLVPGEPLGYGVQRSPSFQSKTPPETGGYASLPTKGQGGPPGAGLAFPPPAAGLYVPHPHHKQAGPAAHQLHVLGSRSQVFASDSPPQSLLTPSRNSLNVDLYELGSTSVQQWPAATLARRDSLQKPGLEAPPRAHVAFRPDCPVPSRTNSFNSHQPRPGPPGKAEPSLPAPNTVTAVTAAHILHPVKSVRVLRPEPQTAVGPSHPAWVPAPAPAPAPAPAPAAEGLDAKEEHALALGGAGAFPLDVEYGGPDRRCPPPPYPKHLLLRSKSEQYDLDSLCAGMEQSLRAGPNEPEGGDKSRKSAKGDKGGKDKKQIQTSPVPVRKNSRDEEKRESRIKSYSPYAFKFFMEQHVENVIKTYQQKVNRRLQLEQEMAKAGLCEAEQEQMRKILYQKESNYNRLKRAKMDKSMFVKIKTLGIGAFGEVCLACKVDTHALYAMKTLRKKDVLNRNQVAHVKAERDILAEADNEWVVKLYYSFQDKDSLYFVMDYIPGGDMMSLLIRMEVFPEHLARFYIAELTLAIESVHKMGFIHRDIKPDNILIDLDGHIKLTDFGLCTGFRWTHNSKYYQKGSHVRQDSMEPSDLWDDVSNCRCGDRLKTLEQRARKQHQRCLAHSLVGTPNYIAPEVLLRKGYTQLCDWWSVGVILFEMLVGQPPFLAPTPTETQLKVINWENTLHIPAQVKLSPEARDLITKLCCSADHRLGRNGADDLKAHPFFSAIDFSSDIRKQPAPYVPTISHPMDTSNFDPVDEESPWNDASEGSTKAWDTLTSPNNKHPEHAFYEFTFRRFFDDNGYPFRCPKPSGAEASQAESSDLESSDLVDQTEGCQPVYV
Chain of Leucine-rich repeat serine/threonine-protein kinase 2 (Homo sapiens), Q5S007 [G2019S] (Q5S007 whole entry G2019S, the tested form may be a part): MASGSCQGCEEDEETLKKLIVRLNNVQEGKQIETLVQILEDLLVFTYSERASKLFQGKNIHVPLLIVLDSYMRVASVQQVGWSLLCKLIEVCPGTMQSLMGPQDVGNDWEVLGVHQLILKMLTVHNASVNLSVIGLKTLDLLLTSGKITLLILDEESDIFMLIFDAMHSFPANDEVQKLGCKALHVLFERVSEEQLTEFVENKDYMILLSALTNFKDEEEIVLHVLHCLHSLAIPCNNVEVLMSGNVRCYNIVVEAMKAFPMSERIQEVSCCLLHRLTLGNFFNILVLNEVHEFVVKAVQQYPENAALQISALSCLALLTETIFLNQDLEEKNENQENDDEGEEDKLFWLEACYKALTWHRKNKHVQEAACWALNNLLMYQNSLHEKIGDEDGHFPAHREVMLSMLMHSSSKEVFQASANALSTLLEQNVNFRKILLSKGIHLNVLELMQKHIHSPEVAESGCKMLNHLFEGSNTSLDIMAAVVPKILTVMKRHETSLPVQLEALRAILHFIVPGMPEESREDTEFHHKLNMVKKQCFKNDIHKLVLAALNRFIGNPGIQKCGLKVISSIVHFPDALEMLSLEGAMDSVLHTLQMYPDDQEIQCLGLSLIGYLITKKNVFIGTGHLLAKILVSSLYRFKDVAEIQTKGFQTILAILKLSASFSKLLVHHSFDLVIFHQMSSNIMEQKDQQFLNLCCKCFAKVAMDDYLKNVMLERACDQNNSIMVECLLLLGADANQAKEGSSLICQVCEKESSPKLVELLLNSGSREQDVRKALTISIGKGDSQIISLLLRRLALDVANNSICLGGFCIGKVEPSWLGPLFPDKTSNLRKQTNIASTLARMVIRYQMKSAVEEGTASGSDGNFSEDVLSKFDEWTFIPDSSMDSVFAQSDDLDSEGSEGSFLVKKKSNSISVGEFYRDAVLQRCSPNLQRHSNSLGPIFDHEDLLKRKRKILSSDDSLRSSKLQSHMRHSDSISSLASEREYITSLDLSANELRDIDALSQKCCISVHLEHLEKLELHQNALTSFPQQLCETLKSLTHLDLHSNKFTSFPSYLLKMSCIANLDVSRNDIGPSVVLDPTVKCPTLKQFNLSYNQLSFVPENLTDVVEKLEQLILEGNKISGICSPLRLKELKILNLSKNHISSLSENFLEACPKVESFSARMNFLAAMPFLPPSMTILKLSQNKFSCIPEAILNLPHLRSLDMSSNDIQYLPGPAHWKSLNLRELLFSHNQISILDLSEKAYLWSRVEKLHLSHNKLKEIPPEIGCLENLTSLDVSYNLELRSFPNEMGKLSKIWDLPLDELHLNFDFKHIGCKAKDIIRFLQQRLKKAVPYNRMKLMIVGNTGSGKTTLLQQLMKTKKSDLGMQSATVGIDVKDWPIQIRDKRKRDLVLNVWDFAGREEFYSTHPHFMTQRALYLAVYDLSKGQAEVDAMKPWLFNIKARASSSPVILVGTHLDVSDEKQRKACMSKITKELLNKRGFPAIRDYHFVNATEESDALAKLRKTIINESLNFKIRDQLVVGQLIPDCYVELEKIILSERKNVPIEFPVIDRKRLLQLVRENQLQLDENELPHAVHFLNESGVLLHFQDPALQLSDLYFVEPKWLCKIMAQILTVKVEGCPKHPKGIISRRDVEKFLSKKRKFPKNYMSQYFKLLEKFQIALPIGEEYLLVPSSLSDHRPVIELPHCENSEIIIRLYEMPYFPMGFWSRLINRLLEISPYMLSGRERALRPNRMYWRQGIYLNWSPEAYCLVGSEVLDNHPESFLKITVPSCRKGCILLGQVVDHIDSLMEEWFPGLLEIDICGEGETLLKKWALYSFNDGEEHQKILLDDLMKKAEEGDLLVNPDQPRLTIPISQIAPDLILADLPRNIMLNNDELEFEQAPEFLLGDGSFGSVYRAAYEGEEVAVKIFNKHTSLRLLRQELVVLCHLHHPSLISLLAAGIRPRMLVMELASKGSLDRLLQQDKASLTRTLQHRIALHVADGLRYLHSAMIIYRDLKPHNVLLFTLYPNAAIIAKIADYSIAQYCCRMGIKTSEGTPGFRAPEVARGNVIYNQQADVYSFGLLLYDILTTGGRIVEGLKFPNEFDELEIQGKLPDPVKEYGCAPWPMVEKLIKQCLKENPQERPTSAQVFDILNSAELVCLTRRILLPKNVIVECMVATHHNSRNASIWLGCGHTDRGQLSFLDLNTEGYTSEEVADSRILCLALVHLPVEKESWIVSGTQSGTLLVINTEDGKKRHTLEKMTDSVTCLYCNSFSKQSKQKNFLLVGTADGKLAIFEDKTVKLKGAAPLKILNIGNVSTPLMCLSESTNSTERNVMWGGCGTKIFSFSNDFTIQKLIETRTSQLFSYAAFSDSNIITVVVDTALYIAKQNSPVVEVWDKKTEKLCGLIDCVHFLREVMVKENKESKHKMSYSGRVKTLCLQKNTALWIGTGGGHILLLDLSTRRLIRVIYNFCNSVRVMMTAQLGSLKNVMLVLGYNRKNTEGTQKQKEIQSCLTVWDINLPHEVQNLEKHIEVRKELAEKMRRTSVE
Chain of Cyclin-dependent kinase 8 (Homo sapiens) (P49336 whole entry, the tested form may be a part): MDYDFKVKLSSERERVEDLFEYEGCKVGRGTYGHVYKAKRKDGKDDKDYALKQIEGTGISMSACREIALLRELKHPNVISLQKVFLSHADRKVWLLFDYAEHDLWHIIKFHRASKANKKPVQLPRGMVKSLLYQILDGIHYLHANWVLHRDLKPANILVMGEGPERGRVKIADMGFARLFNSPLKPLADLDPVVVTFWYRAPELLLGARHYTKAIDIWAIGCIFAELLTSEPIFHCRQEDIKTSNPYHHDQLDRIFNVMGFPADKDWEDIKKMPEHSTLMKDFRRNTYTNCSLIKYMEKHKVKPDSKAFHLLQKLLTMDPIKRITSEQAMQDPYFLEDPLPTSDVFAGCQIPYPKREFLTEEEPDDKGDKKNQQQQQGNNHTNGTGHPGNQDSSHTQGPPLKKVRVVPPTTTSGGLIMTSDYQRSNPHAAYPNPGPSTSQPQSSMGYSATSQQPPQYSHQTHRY

O=C(Nc1cc(-c2cn(CCNc3c4c(nc5ccccc35)CCCC4)nn2)ccn1)Nc1cccc2c1C1CCCCN1C2=O (racemic)
Activity [1]: 2.1%
Activity [2]: 5.6%
Activity [3]: 100%
Activity [4]: 48%
Activity [5]: 2.3%
Activity [6]: 64%
Activity [7]: 0.54%
Activity [8]: 66%
Activity [9]: 80%
Activity [10]: 77%
Activity [11]: 87%
Activity [12]: 21%
Activity [13]: 1.6%
Activity [14]: 65%
Activity [15]: 24%
Activity [16]: 91%
Activity [17]: 4.3%
Activity [18]: 11%
Activity [19]: 72%
Activity [20]: 55%
Activity [21]: 22%
Activity [22]: 16%
Activity [23]: 55%
Activity [24]: 10%
